Reference: patent US9586914B2, “Modulators of C3a receptors” (THE UNIVERSITY OF QUEENSLAND, priority 2011, dated 2017)
Read-outs that look alike come from different tables or passages of the source.

Tests used:
[1] = target: T1, C3a receptor (C3aR) (Homo sapiens, UniProt Q16581); experiment: Competitive binding with [^125I]-C3a in HMDM; settings: for pIC50 ± SEM / IC50: HMDM; for remaining activity at 20 µM: 1 h, read-out: %[^125I]-C3a binding
T1 construct: peripheral blood mononuclear cells were isolated from buffy coat (obtained from Australian Red Cross Blood Service, Kelvin Grove); endogenous in cells; host or cells: primary human monocyte-derived macrophages (HMDM) differentiated from CD14+ monocytes of donor buffy coat
T1 sequence (Q16581 1-482): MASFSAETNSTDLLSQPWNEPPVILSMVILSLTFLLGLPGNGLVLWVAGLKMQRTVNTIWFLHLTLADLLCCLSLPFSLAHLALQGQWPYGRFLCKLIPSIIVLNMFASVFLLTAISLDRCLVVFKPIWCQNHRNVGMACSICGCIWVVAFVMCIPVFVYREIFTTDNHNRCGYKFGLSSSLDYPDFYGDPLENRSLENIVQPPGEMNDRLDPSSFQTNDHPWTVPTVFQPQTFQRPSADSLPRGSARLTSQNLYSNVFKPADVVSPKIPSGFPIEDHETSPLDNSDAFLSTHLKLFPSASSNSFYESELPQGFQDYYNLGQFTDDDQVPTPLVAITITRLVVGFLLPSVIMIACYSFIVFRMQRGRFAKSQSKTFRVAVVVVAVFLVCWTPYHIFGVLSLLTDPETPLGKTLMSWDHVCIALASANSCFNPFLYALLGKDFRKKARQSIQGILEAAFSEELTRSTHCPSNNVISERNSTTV
Description: For HMDM, peripheral blood mononuclear cells were isolated from buffy coat (obtained from Australian Red Cross Blood Service, Kelvin Grove) using Ficoll-paque density centrifugation (GE Healthcare Bio-Science, Uppsala, Sweden). CD^14+ monocytes were positively selected using CD^14+ MACS magnetic beads (Miltenyi Biotech, Auburn, Calif., USA). […] Cells were harvested by gentle scraping in saline solution and replated for use on Day 7. […] Unbound radioactivity was removed by filtration through glass microfiber filters GF/B (Whatman Iner. […] The filter was washed 3 times with cold buffer (50 mM Tris-HCl) pH 7.4. […] The −log IC50 for each compound was calculated for separate experiments and express as an arithmetic mean standard error (SE). IC50 values were expressed as a geometric mean.

[2] = target: T2, C3aR (Homo sapiens, UniProt Q16581); experiment: Calcium mobilization assay in HMDM (agonist/antagonist activity); format: cell-based; settings: for EC50: read-out: EC50; for Emax at 10 µM: read-out: % agonist
T2 construct: peripheral blood mononuclear cells were isolated from buffy coat (obtained from Australian Red Cross Blood Service, Kelvin Grove); endogenous in cells; host or cells: primary human monocyte-derived macrophages (HMDM) differentiated from CD14+ monocytes of donor buffy coat
T2 sequence (Q16581 1-482): T1 sequence (Q16581 1-482)
Protocol: Harvested HMDM cells were washed with 0.9% NaCl solution by centrifugation at 2500 rpm for 5 min, followed by resuspension of the cell pellet with complete media. Cells were seeded at 5×10^4 cells/well in a 96-well black-wall, clear bottom plate (DKSH, Zurich), and left overnight to adhere at 37° C. On the day of the experiment, supernatant was removed and cells were incubated in dye loading buffer (Hank's Balanced Salt Solution (HBSS) with 4 μM Fluo-3, 25 μL pluronic acid, 1% fetal bovine serum (FBS) and 2.5 mM probenecid) for one hour at 37° C. Cells were then washed twice with HBSS and transferred to a Fluorostar spectrofluorimeter (BMG, Durham N.C.) for oxazole compound injection and fluorescence measurements.
Various compounds were examined in the calcium mobilization assay for agonist or antagonist activity compared to hC3a and to the known antagonist SB290157.
HMDMs were seeded into black-wall, clear bottom 96-well plates (Corning Incorporated, NY) at 50,000 cells/well and left to incubate at 37° C. with 5% CO2 overnight for cells to adhere. The medium was removed before being washed with the assay buffer (1×HBSS, 20 mM HEPES, 2.5 mM probenecid, pH 7.4). To each well was added 100 μL of dye-loading buffer made up of 12 mL calcium buffer, 1% FBS, 25 μL of Fluo-3 dye (final concentration of 4 μM) and 25 μL of 20% pluronic acid. The plate was covered in aluminium foil to protect the light-sensitive dye and left to incubate at 37° C. for 1 h. The dye-loading buffer was removed before the cells were washed with the assay buffer to remove excess loading dye. To each well was added 50 μL of fresh assay buffer before the plate was loaded into a FLIPR (Fluorescent Imaging Plate Reader) that can inject treatments and measure any calcium release. To generate agonist plots, calcium release was monitored for 300 seconds. To generate antagonist plots, calcium release was recorded for 900 seconds, which at the same time would allow incubation for the antagonists. After the initial incubation period, an agonist would be added and the response was recorded for 300 seconds. Intracellular release of calcium was recorded via fluorescence measurements at wavelength of 485 nm for excitation and 520 nm for emission.

[3] = Table 6, competitive binding with [^125I]-C3a
[4] = Table 6, competitive binding with [^125I]-C3a, read-out: IC50 (converted)
[5] = Table 9, Ca^2+ mobilization, HMDM

Structure (SMILES)	remaining activity at 20 µM [1]	Emax at 10 µM [2]	further results
CC[C@H](C)[C@H](NC(=O)c1cccc(OC)c1OC)c1nc(C(=O)N[C@@H](CCCNC(=N)N)C(=O)O)co1 [Compound 22, 2,3-dimethoxybenzoic acid-isoleucine-oxazole-arginine-OH]			pIC50 ± SEM [1, 3]: 6.15 ± 0.14; IC50 [1, 4]: 712 nM; EC50 (nM) [2, 5]: ∞; pEC50 ± SEM [2, 5]: ∞
CC[C@H](C)[C@H](NC(=O)c1ccc(OC)cc1OC)c1nc(C(=O)N[C@@H](CCCNC(=N)N)C(=O)O)co1 [Compound 23, 2,4-Dimethoxybenzoic acid-isoleucine-oxazole-arginine-OH]			pIC50 ± SEM [1, 3]: 6.06 ± 0.13; IC50 [1, 4]: 872 nM; pEC50 ± SEM [2, 5]: 6.07 ± 0.13; EC50 [2, 5]: 849 nM
CC(C)C[C@H](NC(=O)Cc1ccc(F)cc1)c1nc(C(=O)N[C@@H](CCCNC(=N)N)C(=O)O)co1 [Compound 24, 2-(4-fluorophenyl)acetic acid-Leucine-Oxazole-Arginine-OH]			pIC50 ± SEM [1, 3]: 6.99 ± 0.10; IC50 [1, 4]: 102 nM; pEC50 ± SEM [2, 5]: 6.28 ± 0.16; EC50 [2, 5]: 527 nM
Cc1oc([C@H](CC(C)C)NC(=O)c2cc3ccccc3o2)nc1C(=O)N[C@@H](CCCNC(=N)N)C(=O)O [Compound 26, Benzofuran carboxylic acid-Leucine-5-Methyl-Oxazole-Arginine]	19%	84%	
Cc1oc([C@H](CC(C)C)NC(=O)c2cc3ccccc3s2)nc1C(=O)N[C@@H](CCCNC(=N)N)C(=O)O [Compound 27, Benzothiophene-2-carboxylic acid-Leucine-5-Methyl-Oxazole-Arginin]	14%	62%	
Cc1oc([C@H](CC(C)C)NC(=O)c2cc3ccccc3[nH]2)nc1C(=O)N[C@@H](CCCNC(=N)N)C(=O)O [Compound 28, Indole-2-carboxylic acid-Leucine-5-Methyl-Oxazole-Arginine]	26%	56%	
Cc1oc([C@H](CC(C)C)NC(=O)c2ccccn2)nc1C(=O)N[C@@H](CCCNC(=N)N)C(=O)O [Compound 29, Picolinic acid-Leucine-5-Methyl-Oxazole-Arginine]	31%	77%	
Cc1oc([C@H](CC(C)C)NC(=O)c2cccnc2)nc1C(=O)N[C@@H](CCCNC(=N)N)C(=O)O [Compound 30]	29%	68%	
Cc1oc([C@H](CC(C)C)NC(=O)C2CCCCC2)nc1C(=O)N[C@@H](CCCNC(=N)N)C(=O)O [Compound 32, Cyclohexane carboxylic acid-Leucine-5-Methyl-Oxazole-Arginine]	39%	107%	
Cc1oc([C@H](CC(C)C)NC(=O)CC2CCCCC2)nc1C(=O)N[C@@H](CCCNC(=N)N)C(=O)O [Compound 33, Cyclohexyl acetic acid-Leucine-5-Methyl-Oxazole-Arginine]	26%	69%	
Cc1oc([C@H](CC(C)C)NC(=O)CC(C)(C)C)nc1C(=O)N[C@@H](CCCNC(=N)N)C(=O)O [Compound 34, 3,3-Dimethylbutanoic acid-Leucine-5-Methyl-Oxazole-Arginine]	44%	70%	
Cc1oc([C@H](CC(C)C)NC(=O)Cc2ccc(C(F)(F)F)cc2)nc1C(=O)N[C@@H](CCCNC(=N)N)C(=O)O [Compound 36, 4-(Trifluoromethyl)-phenylacetic acid-Leucine-5-Methyl-Oxazole-Arginine]	61%	50%	
COc1ccccc1CC(=O)N[C@@H](CC(C)C)c1nc(C(=O)N[C@@H](CCCNC(=N)N)C(=O)O)c(C)o1 [Compound 37, 2-Methoxy-phenylacetic acid-Leucine-5-Methyl-Oxazole-Arginine]	43%	81%	
COc1cccc(CC(=O)N[C@@H](CC(C)C)c2nc(C(=O)N[C@@H](CCCNC(=N)N)C(=O)O)c(C)o2)c1 [Compound 38, 3-Methoxy-phenylacetic acid-Leucine-5-Methyl-Oxazole-Arginin]	41%	87%	
COc1ccc(CC(=O)N[C@@H](CC(C)C)c2nc(C(=O)N[C@@H](CCCNC(=N)N)C(=O)O)c(C)o2)cc1 [Compound 39, 4-Methoxy-phenylacetic acid-Leucine-5-Methyl-Oxazole-Arginine]	40%	26%	
Cc1oc([C@H](CC(C)C)NS(=O)(=O)c2ccccc2)nc1C(=O)N[C@@H](CCCNC(=N)N)C(=O)O [Compound 40, Phenyl sulfonamide-Leucine-5-Methyl-Oxazole-Arginine]	44%	103%	
COc1ccc(CCC(=O)N[C@@H](CC(C)C)c2nc(C(=O)N[C@@H](CCCNC(=N)N)C(=O)O)c(C)o2)cc1 [Compound 41, 3-(4-Methoxyphenyl)propionic acid-Leucine-5-Methyl-Oxazole-Arginine]	44%	44%	
COc1ccc(CC(=O)N[C@@H](CC(C)C)c2nc(C(=O)N[C@@H](CCCNC(=N)N)C(=O)O)c(C)o2)cc1OC [Compound 43, 3,4-Dimethoxy-phenyl acetic acid-Leucine-5-Methyl-Oxazole-Arginine]	65%	67%	
COc1ccc(OC)c(CC(=O)N[C@@H](CC(C)C)c2nc(C(=O)N[C@@H](CCCNC(=N)N)C(=O)O)c(C)o2)c1 [Compound 44, 2,5-Dimethoxy-phenyl acetic acid-Leucine-5-Methyl-Oxazole-Arginine]	42%	69%	
Cc1oc([C@H](CC(C)C)NC(=O)NCc2ccccc2)nc1C(=O)N[C@@H](CCCNC(=N)N)C(=O)O [Compound 46, Benzylisocyanate-Leucine-5-Methyl-Oxazole-Arginine]	61%	50%	
Cc1oc([C@H](CC(C)C)NC(=O)Cc2ccc(/N=N/c3ccccc3)cc2)nc1C(=O)N[C@@H](CCCNC(=N)N)C(=O)O [Compound 47, Phenyl hydrazine-Benzeneacetic acid-Leucine-5-Methyl-Oxazole-Arginine]	49%	48%	
Cc1oc([C@H](CC(C)C)NC(=O)c2cncc(Br)c2)nc1C(=O)N[C@@H](CCCNC(=N)N)C(=O)O [Compound 48, 5-Bromonicotinic acid-Leucine-5-Methyl-Oxazole-Arginine]	32%	68%	
CC(C)C[C@H](NC(=O)OC(C)(C)C)c1nc(C(=O)N[C@@H](CCCNC(=N)N)C(=O)O)c(-c2ccccc2)o1 [Compound 50, Boc-Leucine-5-Phenyl-Oxazole-Arginine]			IC50 ([1]; Table 6, competitive binding with [^125I]-C3a, read-out: pIC50 ± SEM (converted)): 37.2 nM; IC50 ([1]; Table 11, [^125I]-C3a, read-out: Receptor Binding Affinity pIC50 ± SE (converted)): 37.2 nM; Apparent Antagonist Activity pEC50 ± SE (symbol) ([2]; Table 11): * (The compounds show no agonist activity in calcium mobilisation assays up to 100 μM.); IC50 ([2]; Table 11, Ca^2+ mobilisation, HMDM, read-out: Apparent Antagonist Activity IC50): 16.5 nM
